Experimental data published in patent publication US20070219825A1, “METHOD OF MANAGING AND REDUCING SIDE EFFECTS ASSOCIATED WITH EXPOSURE TO A DRUG” (priority 2005, published 2007).

Columns and labels:
[1] = placebo-controlled trials, liver aminotransferases; assay type: in vivo, patients
Text: (§1) As described herein, an exemplary restricted drug distribution program for the distribution of sitaxsentan sodium has been developed, in accordance with the restricted distribution methods provided above, to minimize the risk of side effects associated with exposure to sitaxsentan sodium. Sitaxsentan sodium is an endothelin receptor antagonist (ETRA) used to treat people diagnosed with pulmonary arterial hypertension (PAH). […] However, along with the many benefits, there are many risks associated with exposure to sitaxsentan sodium. For instance, ETRA's, as a class, have been associated with liver function abnormalities. […] In addition, ETRA's, as a class, have consistently produced teratogenic effects in animals. […] Although the effects of sitaxsentan sodium on human development are not known, it is likely to produce major birth defects if used by pregnant women. Sitaxsentan sodium also is contraindicated for those taking cyclosporine A (used for treatment of psoriasis and rheumatoid arthritis, and to prevent rejection of organ transplants).

rat = test: reproductive toxicology studies, dosing during pregnancy; assay type: in vivo
Text: as §1

[2] = system: pulmonary arterial hypertension (PAH); test: clinical studies in subjects with PAH; assay type: in vivo
Text: as §1

metabolism of warfarin = conditions: concomitant warfarin; cited from earlier work

Compound: Cc1cc2c(cc1CC(=O)c1sccc1S(=O)(=O)Nc1onc(C)c1Cl)OCO2 [sitaxsentan sodium]
- patients with at least a three-fold increase of liver aminotransferases (hepatoxicity) [1]: about two
- reproductive toxicology: effect of dosing during pregnancy (rat): several fetal malformations
- safety and efficacy in the treatment of PAH [2]: demonstrated safety and efficacy
- effect on metabolism of warfarin (metabolism of warfarin): antagonize the metabolism of warfarin
